Test [1] concerns the target T1, rat TRPA1 (Rattus norvegicus, UniProt Q6RI86).
T1 construct: expressed in transfected cells; host or cells: HEK-293
Put plainly: TRPA1-mediated elevation of intracellular Ca2+ (Fluo-4) in transfected HEK-293 cells. The class given is cell-based. To be noted: for TRPA1 Efficacy (%ITC 100 μM): percentage of the effect of 100 μM allylisothiocyanate on [Ca2+]i, HEK-293. How it is done: (§1) Assays of rat TRPA1, TRPV2, TRPV3, TRPV4, and TRPM8 or human TRPV1 mediated elevation of intracellular Ca ^2+ in transfected HEK-293 cells were performed with a continuous monitoring of [Ca ^2+]i during the experiments. […] Cell fluorescence before and after the addition of various concentrations of test compounds was measured, normalizing the effects against the response to ionomycin (IM, 4 μM). The values of the effect on [Ca^2+]i in HEK-293 cells not transfected were used as baseline and subtracted from the values obtained from transfected cells. For TRPA1, agonist efficacy was expressed as a percentage of the effect on [Ca ^2+]i observed with 100 μM allylisothiocyanate. […] In the TRPV3 assay, TRPV3-expressing HEK293 cells were first sensitized with the structurally unrelated agonist 2-aminoethoxydiphenyl borate (100 μM). Antagonist/desensitizing behavior is evaluated against the agonist of the TRP analyzed by adding the compounds directly in the quartz cuvette 5 min before stimulation of cells with the agonist. […] Dose-response curve fitting (sigmoidal dose-response variable slope) and parameter estimation were performed with Graph-Pad Prism8 (GraphPad Software Inc., San Diego, CA, USA). All determinations were performed at least in triplicate.

In test [2] the target is T2, human TRPV1 (Homo sapiens, UniProt Q8NER1).
T2 construct: expressed in transfected cells; host or cells: HEK-293
As to the kind of experiment: TRPV1-mediated elevation of intracellular Ca2+ (Fluo-4) in transfected HEK-293 cells. The class given is cell-based. To be noted: for TRPV1 Efficacy (% IM 4 μM): percentage of the response to ionomycin 4 μM, HEK-293. How it is done: as §1

Test [3] deals with T3, rat TRPM8 (Rattus norvegicus, UniProt Q8R455).
T3 construct: expressed in transfected cells; host or cells: HEK-293
Put plainly: TRPM8 antagonism of icilin-induced intracellular Ca2+ elevation (Fluo-4) in transfected HEK-293 cells. The class given is cell-based. To be noted: IC50 TRPM8, antagonist; compound added 5 min before agonist icilin 0.25 μM. Here is the method: as §1

Test [4] addresses T1, rat TRPA1. Also on record: method as in PMID 21175579. To be noted: cited from earlier work.
The target of test [5] is T2, human TRPV1. Also on record: method as in PMID 21175579. To be noted: cited from earlier work.
The target in test [6] is T4, rat TRPV2 (Rattus norvegicus, UniProt Q9WUD2).
T4 construct: expressed in transfected cells; host or cells: HEK-293
T4 sequence (Q9WUD2 1-761): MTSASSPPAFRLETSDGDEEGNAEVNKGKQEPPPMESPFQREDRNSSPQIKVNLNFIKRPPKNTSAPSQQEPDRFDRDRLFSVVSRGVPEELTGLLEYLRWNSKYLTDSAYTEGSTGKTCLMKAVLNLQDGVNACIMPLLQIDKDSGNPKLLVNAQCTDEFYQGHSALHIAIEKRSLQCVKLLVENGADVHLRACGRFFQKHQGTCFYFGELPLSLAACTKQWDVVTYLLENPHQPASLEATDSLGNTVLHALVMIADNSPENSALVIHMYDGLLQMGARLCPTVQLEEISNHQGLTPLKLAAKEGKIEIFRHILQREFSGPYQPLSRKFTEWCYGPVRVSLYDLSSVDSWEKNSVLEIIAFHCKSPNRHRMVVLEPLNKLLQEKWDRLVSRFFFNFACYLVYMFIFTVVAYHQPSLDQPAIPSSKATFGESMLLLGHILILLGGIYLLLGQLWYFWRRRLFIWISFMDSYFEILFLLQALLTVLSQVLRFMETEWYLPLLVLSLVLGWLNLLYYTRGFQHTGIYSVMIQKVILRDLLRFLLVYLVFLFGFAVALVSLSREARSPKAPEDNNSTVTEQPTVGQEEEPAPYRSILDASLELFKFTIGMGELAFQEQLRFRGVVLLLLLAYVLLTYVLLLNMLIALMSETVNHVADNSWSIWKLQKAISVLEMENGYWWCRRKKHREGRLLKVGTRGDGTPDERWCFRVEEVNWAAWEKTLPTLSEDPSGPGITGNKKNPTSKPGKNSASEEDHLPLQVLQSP
Also on record: method as in PMID 21175579, PMID 21726418. To be noted: cited from earlier work.

Test [7] has as its target T5, rat TRPV3 (Rattus norvegicus, UniProt Q4QYD9).
T5 construct: expressed in transfected cells; host or cells: HEK-293
T5 sequence (Q4QYD9 1-791): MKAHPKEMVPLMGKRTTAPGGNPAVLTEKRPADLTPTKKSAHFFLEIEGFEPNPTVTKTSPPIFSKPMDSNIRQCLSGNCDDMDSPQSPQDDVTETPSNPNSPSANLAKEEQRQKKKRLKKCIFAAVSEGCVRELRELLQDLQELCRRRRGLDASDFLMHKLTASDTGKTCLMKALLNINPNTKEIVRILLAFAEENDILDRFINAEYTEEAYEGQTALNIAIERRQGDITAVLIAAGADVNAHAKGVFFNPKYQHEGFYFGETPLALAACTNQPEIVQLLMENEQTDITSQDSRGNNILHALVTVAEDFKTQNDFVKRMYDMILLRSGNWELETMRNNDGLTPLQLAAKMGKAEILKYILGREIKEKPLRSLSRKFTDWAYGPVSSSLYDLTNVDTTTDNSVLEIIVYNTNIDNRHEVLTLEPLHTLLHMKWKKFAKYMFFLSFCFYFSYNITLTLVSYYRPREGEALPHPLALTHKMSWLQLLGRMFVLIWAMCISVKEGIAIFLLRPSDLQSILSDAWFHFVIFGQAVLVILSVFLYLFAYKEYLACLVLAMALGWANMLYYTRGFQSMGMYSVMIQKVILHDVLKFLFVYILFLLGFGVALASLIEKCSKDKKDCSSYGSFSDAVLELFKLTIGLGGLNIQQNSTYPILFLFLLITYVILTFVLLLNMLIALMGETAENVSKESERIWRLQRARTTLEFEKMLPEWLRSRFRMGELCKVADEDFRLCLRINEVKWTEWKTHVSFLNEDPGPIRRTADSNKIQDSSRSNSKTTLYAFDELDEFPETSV
Also noted: method as in PMID 21175579, PMID 21726418. The note with it: cited from earlier work.

The target in test [8] is T6, rat TRPV4 (Rattus norvegicus, UniProt Q9ERZ8).
T6 construct: expressed in transfected cells; host or cells: HEK-293
Also noted: method as in PMID 21175579, PMID 21726418. The note with it: cited from earlier work.

Test [9] deals with T4, rat TRPV2. As to the kind of experiment: TRPV2-mediated elevation of intracellular Ca2+ (Fluo-4) in transfected HEK-293 cells. The class given is cell-based. How it is done: as §1
The target in test [10] is T6, rat TRPV4. As to the kind of experiment: TRPV4-mediated elevation of intracellular Ca2+ (Fluo-4) in transfected HEK-293 cells. The class given is cell-based. How it is done:
as §1

Setting [11] is: percentage of the response to ionomycin 4 μM.
[12] abbreviates: percentage of the response to ionomycin 4 μM, HEK-293.

Molecules are shown by their SMILES. Where “and” joins values, the source holds several entries; their conditions need not be identical. Identical values can stand only once. Like-named read-outs stand apart in the source and are kept apart here.

T1 sequence (Q6RI86 whole entry): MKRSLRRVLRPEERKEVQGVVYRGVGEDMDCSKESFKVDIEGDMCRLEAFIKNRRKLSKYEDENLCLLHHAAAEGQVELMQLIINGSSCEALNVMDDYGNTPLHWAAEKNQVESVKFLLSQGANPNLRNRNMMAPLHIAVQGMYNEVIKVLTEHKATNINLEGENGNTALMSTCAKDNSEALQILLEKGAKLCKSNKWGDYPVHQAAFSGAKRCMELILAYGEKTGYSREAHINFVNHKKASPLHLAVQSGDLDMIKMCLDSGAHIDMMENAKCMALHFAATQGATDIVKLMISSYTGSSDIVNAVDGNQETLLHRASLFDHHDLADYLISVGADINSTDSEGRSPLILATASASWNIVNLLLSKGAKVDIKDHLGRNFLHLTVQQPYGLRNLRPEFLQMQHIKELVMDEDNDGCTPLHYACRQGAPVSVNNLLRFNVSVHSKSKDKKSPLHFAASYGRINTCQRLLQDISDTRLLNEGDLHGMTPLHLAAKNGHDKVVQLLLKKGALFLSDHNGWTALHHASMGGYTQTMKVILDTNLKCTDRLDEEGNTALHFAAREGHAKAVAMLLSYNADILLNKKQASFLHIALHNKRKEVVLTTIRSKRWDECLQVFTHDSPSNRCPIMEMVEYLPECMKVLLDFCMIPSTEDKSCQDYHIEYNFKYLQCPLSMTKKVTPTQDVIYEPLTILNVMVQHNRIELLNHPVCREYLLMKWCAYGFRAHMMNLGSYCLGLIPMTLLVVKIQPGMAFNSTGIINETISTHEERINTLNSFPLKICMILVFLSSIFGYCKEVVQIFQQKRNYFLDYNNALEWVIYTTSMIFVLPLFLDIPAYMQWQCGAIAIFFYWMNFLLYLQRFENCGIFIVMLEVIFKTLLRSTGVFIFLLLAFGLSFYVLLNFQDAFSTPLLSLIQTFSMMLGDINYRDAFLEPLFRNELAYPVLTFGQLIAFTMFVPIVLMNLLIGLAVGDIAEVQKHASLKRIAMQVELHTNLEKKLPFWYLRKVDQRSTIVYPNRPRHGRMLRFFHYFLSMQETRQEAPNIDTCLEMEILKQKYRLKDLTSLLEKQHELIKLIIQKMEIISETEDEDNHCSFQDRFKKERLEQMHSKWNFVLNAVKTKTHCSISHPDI
T2 sequence (Q8NER1 whole entry): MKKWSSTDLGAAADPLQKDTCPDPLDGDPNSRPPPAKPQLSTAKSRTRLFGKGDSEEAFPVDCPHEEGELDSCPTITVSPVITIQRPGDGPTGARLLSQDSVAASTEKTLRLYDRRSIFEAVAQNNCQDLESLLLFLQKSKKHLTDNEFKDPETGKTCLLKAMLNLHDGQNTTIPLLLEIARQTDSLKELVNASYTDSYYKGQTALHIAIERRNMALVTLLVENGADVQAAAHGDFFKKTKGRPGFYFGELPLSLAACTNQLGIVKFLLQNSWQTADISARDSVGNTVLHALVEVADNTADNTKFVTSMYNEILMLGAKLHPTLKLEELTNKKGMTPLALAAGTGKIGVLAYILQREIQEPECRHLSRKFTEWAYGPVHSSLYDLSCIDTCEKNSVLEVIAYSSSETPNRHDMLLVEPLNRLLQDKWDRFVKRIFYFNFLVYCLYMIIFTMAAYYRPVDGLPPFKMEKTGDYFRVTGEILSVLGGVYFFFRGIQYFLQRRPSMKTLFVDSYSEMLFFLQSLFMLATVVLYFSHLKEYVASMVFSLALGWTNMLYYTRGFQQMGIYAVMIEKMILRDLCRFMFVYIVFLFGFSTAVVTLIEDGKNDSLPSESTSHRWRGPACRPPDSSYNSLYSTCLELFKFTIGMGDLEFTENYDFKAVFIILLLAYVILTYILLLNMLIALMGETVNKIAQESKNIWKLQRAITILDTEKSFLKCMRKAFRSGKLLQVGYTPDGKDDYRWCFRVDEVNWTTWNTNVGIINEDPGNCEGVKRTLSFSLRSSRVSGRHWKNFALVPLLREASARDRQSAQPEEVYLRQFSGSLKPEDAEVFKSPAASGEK
T6 sequence (Q9ERZ8 whole entry): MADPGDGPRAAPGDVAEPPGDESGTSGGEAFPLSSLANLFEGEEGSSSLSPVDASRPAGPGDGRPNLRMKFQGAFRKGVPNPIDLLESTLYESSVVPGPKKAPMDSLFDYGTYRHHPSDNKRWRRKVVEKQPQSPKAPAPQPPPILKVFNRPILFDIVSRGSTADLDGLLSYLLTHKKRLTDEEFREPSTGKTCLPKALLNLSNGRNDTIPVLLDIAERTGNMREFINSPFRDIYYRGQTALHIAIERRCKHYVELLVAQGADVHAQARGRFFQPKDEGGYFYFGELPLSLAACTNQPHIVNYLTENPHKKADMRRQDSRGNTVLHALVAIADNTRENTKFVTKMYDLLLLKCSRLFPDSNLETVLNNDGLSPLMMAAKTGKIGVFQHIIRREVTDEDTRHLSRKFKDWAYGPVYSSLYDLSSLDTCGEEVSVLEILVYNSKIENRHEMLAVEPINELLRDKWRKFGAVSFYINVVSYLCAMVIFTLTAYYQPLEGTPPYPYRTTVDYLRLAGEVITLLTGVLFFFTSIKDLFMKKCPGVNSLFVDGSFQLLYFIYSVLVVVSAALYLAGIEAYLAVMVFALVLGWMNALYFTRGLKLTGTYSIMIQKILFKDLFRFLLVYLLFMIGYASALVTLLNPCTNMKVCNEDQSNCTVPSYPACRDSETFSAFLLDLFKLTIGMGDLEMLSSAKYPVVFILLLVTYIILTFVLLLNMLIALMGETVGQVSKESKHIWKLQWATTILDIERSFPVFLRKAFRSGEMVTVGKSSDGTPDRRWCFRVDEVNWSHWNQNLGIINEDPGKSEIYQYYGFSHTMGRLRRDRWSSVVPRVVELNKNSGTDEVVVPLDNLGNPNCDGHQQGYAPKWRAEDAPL
T3 sequence (Q8R455 whole entry): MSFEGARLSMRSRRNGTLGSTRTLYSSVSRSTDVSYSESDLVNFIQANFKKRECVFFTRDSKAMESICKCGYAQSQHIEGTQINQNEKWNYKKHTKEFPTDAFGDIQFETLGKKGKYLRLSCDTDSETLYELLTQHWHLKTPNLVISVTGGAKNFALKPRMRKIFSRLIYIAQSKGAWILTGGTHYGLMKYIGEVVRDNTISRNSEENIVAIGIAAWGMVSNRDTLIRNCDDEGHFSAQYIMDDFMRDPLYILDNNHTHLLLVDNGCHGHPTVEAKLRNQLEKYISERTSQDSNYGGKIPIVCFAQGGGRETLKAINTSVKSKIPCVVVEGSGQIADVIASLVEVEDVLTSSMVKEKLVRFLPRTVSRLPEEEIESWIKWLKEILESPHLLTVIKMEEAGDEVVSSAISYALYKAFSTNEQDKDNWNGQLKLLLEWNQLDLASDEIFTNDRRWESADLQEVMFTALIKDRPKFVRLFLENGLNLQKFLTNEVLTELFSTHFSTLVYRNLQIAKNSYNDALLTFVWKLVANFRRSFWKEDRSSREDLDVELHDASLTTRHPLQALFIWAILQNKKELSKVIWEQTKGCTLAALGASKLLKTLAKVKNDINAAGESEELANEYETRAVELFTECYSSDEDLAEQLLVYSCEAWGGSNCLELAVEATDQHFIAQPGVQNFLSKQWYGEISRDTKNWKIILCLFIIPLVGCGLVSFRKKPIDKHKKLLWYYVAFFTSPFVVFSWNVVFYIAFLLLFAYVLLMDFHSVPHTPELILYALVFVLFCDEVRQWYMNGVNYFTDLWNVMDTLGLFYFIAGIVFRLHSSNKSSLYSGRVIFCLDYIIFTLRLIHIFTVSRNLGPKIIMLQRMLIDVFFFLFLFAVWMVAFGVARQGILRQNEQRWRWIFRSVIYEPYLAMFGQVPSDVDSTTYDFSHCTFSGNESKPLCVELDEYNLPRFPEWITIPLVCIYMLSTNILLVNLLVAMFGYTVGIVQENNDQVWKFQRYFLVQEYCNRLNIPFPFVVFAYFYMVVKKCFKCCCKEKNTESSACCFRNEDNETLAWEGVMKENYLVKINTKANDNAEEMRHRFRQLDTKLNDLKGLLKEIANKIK

On to `CCCCCCC(C)(C)c1cc(O)c2c(c1)OC(C)(C)c1ccc(C)cc1-2` [9b, Depentyl-α,α-dimethylheptyl-cannabinol], for which, in [1], the concentration giving a half-maximal response (EC50) worked out at 2.1 ± 0.9 µM, it took 3.2 ± 0.6 µM to reach half-maximal inhibition (IC50) and the “TRPA1 Efficacy (%ITC 100 μM)” value is on record as 132.3 ± 7.9%. Moreover, in [2], the IC50 is above 100 µM and the “TRPV1 Efficacy (% IM 4 μM)” value was <10 <10%. Besides, the half-maximal inhibitory concentration (IC50) in [3] was found to be 0.98 ± 0.12 µM.

Turning to `C=C(C)[C@@H]1CCC(C)=C[C@H]1c1c(O)cc(CCCCC)cc1O` [1a, cannabidiol], the “TRPA1 Efficacy (%ITC 100 μM)” value in test [4] (percentage of the effect of 100 μM allylisothiocyanate) was 115.9 ± 4.6%. Further, the IC50 is 0.16 µM in test [4] (read-out: IC50 TRPA1, against agonist AITC 100 μM); 0.6 µM in test [5] (read-out: IC50 TRPV1, against agonist capsaicin 0.1 μM); 4.5 µM in [6] (read-out: IC50 TRPV2, against agonist LPC 3 μM); 0.9 µM in test [7] (read-out: IC50 TRPV3, against agonist carvacrol 1 mM); 1.1 µM in test [8] (read-out: IC50 TRPV4, against agonist 4αPDD 1 μM). The “IC50 TRPV1” value in [5] (against agonist capsaicin 0.1 μM) is “sub/low micromolar range”. Further, in test [5] (setting [11]), the “TRPV1 Efficacy (% IM 4 μM)” value is listed as 44.7 ± 0.02%. In addition, the “TRPV2 Efficacy (% IM 4 μM)” value in test [6] (setting [11]) is reported as 40.5 ± 1.6%. The “TRPV3 Efficacy (% IM 4 μM)” value in test [7] (setting [11]) is given as 50.1 ± 4.8%. Further, the EC50 was 3.7 µM in test [7] (read-out: TRPV3 Potency EC50, half-maximal increase in [Ca2+]i) and 0.8 µM in test [8] (read-out: TRPV4 Potency EC50, half-maximal increase in [Ca2+]i). The “TRPV4 Efficacy (% IM 4 μM)” value in test [8] (setting [11]) was 16.7 ± 1.0%.

`CCCCCCC(C)(C)c1cc(O)c2c(c1)OC(C)(C)[C@@H]1CC=C(C)C[C@@H]21` [6b, Depentyl-α,α-dimethylheptyl-Δ^8-tetrahydrocannabinol]: the EC50 in test [1] was 4.8 ± 1.1 µM; in test [2], above 100 µM; in [9], 0.25 ± 0.03 µM; in test [10] it was 16.1 ± 21.6 µM. In addition, the IC50 was 6 ± 0.9 µM in [1]; above 100 µM in [2]; 39.9 ± 6.9 µM in [3]; 45.8 µM and > 50 µM in test [9] (IC50 TRPV2, antagonist/desensitizing, compound added 5 min before agonist CBD 2 μM); above 100 µM in [10]. The “TRPA1 Efficacy (%ITC 100 μM)” value in test [1] stood at 124.2 ± 4.0%. For the same compound, the “TRPV1 Efficacy (% IM 4 μM)” value in test [2] was 15.3%. Further, the “TRPV2 Efficacy (% IM 4 μM)” value in test [9] (setting [12]) is < 10% and 10.5 ± 0.02%. Moreover, the “TRPV4 Efficacy (% IM 4 μM)” value in test [10] (setting [12]) was <10 <10% and 12.1 ± 0.2%.

(Values after publication PMC8391922, “The Combined Effect of Branching and Elongation on the Bioactivity Profile of Phytocannabinoids. Part I: Thermo-TRPs” (Biomedicines, 2021).)
